By EC50 is commonly meant the concentration at which the effect is half-maximal. A low value points to an effect from little substance. As a reminder, the Ki is a measure of affinity in units of concentration, obtained from inhibition or displacement. A lower Ki goes with tighter binding. By IC50 is commonly meant the point on the concentration scale where inhibition reaches its midpoint. A high value points to lower potency.

The results in this text go back to ChEMBL document CHEMBL1136068 (Bioorg Med Chem Lett, 2003).

Calls of active or inactive are those of the source. The rule behind the calls is not given here. Bounds are passed on as bounds.

Test [1] addresses T1, Progesterone receptor (Homo sapiens) (UniProt P06401).
T1 sequence (whole entry): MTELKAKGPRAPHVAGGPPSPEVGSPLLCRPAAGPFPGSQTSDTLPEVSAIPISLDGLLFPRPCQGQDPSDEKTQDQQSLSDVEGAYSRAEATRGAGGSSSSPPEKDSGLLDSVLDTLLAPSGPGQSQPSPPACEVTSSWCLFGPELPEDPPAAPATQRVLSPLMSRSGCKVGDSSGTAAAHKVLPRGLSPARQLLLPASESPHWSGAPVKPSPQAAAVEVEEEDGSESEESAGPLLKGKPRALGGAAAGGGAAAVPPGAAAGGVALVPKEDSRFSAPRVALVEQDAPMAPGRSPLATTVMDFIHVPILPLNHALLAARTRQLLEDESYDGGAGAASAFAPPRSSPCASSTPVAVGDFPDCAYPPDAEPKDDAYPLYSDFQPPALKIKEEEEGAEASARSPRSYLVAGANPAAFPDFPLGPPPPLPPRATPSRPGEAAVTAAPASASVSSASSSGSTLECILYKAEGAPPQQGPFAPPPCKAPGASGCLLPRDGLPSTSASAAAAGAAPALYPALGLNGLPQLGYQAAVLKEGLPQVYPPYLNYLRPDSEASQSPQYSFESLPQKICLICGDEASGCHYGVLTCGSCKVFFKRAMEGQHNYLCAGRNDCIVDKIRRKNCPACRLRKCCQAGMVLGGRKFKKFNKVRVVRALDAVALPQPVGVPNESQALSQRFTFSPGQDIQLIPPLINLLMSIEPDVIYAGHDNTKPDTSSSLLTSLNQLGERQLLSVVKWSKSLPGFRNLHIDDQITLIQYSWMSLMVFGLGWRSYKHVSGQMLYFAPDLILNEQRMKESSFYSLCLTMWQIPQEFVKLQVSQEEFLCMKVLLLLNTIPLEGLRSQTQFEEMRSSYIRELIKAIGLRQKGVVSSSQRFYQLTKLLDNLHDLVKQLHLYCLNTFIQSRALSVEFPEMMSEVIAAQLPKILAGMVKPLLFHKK
In words: Agonist efficacy towards human progesterone receptor (hPR) using the cotransfection assay in CV-1 cells. The class given is functional, cell-based.

In test [2] the target is T2, Progesterone receptor (Homo sapiens, UniProt P06401).
T2 sequence (P06401 whole entry): T1 sequence (whole entry)
In words: Effective concentration for agonist activity towards human progesterone receptor (hPR) using the cotransfection assay in CV-1 cells. Format: functional, cell-based.

Test [3] has as its target T1, Progesterone receptor (Homo sapiens). Briefly: Antagonistic efficacy towards human progesterone receptor (hPR) using the cotransfection assay in CV-1 cells; Not active. The class given is functional, cell-based.
In test [4] the target is T2, Progesterone receptor. Briefly: Binding affinity to human progesterone receptor.
The target in test [5] is T2, Progesterone receptor. In words: Inhibitory concentration for antagonistic activity towards human progesterone receptor (hPR) using the cotransfection assay in CV-1 cells; Not active. The class given is functional, cell-based.
The target of test [6] is T3, Estrogen receptor (Homo sapiens, UniProt Q92731+P03372). Briefly: Inhibitory activity against human Estrogen receptor; not active. Format: protein assay.
Test [7] deals with T3, Estrogen receptor. Briefly: Antagonist efficacy with estrogen (hER) receptor; not active. Format: functional.
For test [8], the target named is T4, Mineralocorticoid receptor (Homo sapiens, UniProt P08235).
T4 sequence (P08235 whole entry): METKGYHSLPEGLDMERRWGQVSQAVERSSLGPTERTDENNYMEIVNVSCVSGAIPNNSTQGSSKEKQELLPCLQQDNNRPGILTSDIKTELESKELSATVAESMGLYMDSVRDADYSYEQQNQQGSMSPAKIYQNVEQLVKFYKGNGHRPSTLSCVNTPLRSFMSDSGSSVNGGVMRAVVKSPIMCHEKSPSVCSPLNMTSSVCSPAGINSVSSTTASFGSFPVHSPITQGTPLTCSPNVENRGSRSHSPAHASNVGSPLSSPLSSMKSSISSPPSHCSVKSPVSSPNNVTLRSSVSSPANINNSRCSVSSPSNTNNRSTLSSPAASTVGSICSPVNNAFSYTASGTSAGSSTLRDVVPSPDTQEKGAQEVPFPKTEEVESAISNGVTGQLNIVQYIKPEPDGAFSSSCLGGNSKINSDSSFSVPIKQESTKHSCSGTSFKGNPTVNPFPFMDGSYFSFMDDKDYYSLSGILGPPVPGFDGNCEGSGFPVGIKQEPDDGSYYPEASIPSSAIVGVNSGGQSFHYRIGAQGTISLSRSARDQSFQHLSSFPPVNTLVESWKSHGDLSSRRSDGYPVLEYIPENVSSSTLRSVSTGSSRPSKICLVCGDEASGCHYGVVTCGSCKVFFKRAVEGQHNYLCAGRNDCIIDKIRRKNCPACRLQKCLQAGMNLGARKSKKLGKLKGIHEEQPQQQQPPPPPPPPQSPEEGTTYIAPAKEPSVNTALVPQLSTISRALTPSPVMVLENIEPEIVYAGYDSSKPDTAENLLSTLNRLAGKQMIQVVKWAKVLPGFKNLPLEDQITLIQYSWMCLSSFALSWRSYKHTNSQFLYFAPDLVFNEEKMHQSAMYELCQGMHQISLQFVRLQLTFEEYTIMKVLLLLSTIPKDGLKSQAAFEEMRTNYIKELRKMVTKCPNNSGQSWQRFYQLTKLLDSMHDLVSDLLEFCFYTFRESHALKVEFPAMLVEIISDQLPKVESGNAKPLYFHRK
In words: Antagonist activity at mineralocorticoid receptor (hMR); not active. The class given is functional.

The target in test [9] is T5, Mineralocorticoid receptor (Homo sapiens) (UniProt P08235).
T5 sequence (whole entry): T4 sequence (P08235 whole entry)
Briefly: Antagonist efficacy at mineralocorticoid receptor (hMR); not active. Format: functional.

Compound `CC/C(C)=C1\Oc2ccc(F)cc2-c2ccc3c(c21)C(C)=CC(C)(C)N3` registered an Efficacy in [1] of 112%. For the same compound, at Progesterone receptor [2], the EC50 worked out at 11 nM. Moreover, the Efficacy entry in test [3] was “inactive”. Besides, the Ki at Progesterone receptor [4] turned out to be 8 nM. Besides, at Progesterone receptor [5], the IC50 result is listed as “Not Active”.

As for `CC(C)=C/C=C1\Oc2ccc(F)cc2-c2ccc3c(c21)C(C)=CC(C)(C)N3`, the IC50 on Estrogen receptor [6] was over 1000 nM; in [8] it was over 1000 nM; on Progesterone receptor [5], “Not Active”. The Efficacy was under 20% at Estrogen receptor [7], under 20% in test [9] and 172% in test [1]. The compound further gave an EC50 on Progesterone receptor [2] of 1.7 nM. For the same compound, in [3], the Efficacy result was “inactive”.

With `CC(=O)C[C@]1(C(C)=O)CC[C@H]2C3C[C@H](C)C4=CC(=O)CC[C@]4(C)[C@H]3CC[C@@]21C` (stereo partly specified), the IC50 is over 1000 nM against Estrogen receptor [6], over 1000 nM in test [8] and “Not Active” on Progesterone receptor [5]. Further, the Efficacy on Estrogen receptor [7] was under 20%; in [9], under 20%; in test [1], 80%. At Progesterone receptor [2], this compound returned an EC50 of 0.15 nM. The Efficacy entry in test [3] was “inactive”. The same compound gave a Ki at Progesterone receptor [4] of 0.34 nM.

In the case of `CC1=CC(C)(C)Nc2ccc3c(c21)/C(=C/Br)Oc1ccc(F)cc1-3`, the IC50 against Estrogen receptor [6] was over 1000 nM; in test [8], over 1000 nM; on Progesterone receptor [5] it was “Not Active”. Also, the figures for the Efficacy (on Estrogen receptor [7]; in test [9]; in test [1]) were under 20%, under 20% and 135%, respectively. The compound also displayed an EC50 at Progesterone receptor [2] of 2.2 nM. Further, in test [3], the Efficacy entry is “inactive”. The compound also registered a Ki at Progesterone receptor [4] of 2.1 nM.
